Among the data in paper PMC10814857, “Functional Classification and Interaction Selectivity Landscape of the Human SH3 Domain Superfamily” (Cells, 2024) are Kd values, retold here.

Assay in all cases: Fluorescence polarization SH3 domain-PRP binding
Experiment [1] addresses T1, ITSN1-4 SH3 domain (aa 1070-1138) (Homo sapiens, UniProt Q15811).
T1 construct: 1070-1138; GST (N); made in house; host or cells: Escherichia coli CodonPlus, Rosetta, BL21(DE3)
T1 sequence (Q15811 1070-1138): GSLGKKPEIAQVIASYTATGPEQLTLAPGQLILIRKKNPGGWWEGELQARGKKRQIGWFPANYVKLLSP
Particulars: FP, 0.2 µM fluorescein-labeled peptide, SH3 domain 0-200 µM, Tris/HCl pH 7.5, 25 °C, quadratic fit. The procedure: (§1) The interaction between fluorescein-labeled proline-rich peptides (0.2 µM) and increasing concentrations of SH3 domains (ranging from 0 to 200 µM) was measured in a buffer (containing 30 mM Tris/HCl (pH 7.5), 5 mM MgCl2, and 3 mM DTT at 25 °C) in a total volume of 200 µL using a Fluoromax 4 fluorimeter in polarization mode and a quartz glass fluorescence cuvette (Hellma Ultra-Micro Cuvette 105.250-QS, Thermo Fisher Scientific, Waltham, MA USA). Excitation was performed at 470 nm and emission was measured at 560 nm. Dissociation constants (Kd) were determined by fitting the concentration-dependent binding curve to a quadratic ligand binding equation.
(§2) Fluorescence polarization measurements were performed to determine the binding affinities of SH3 domain–PRP interaction pairs from the dot blot analysis. SH3 proteins were titrated at increasing concentrations against fluorescent PRPs, which were kept at a constant concentration of 0.2 µM. GRB2-2^W193K, which is defective in the binding of PRPs such as RP1, was used as a negative control as previously described. […] The resulting data (Figure S6) allowed the evaluation of equilibrium dissociation constants (Kd) for 45 interactions between the SH3 domains and the PRPs (Figure 2B; Table S6).
(§3) Figure S6. Interactions of the SH3 domains with fluorescent PRPs measured by fluorescence polarization.
(§4) Fluorescent peptides (0.2 µM) were titrated with increasing concentrations of the corresponding SH3 domains.
(§5) GRB2-2W193K, defective in the binding of PRPs such as RP1, was used as a negative control as previously described. The x-axis represents SH3 domain concentrations as GST fusion proteins in µM, while the y-axis represents fluorescence polarization. The equilibrium dissociation constants (Kd) for the respective measurements were determined by fitting the titration curves to a quadratic ligand-binding equation (solid lines). All Kd values are […]
(§6) Error bars are derived from the fitting errors.

Experiment [2] addresses T2, ITSN1-5 SH3 domain (aa 1155-1214) (Homo sapiens, UniProt Q15811).
T2 construct: 1155-1214; GST (N); made in house; host or cells: Escherichia coli CodonPlus, Rosetta, BL21(DE3)
T2 sequence (Q15811 1155-1214): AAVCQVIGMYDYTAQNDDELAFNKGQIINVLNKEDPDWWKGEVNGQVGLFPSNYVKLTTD
As to conditions: FP, 0.2 µM fluorescein-labeled peptide, SH3 domain 0-200 µM, Tris/HCl pH 7.5, 25 °C, quadratic fit. The protocol: as §1, §2, §3, §4, §5, §6

In another experiment the target is T3, NPHP1 SH3 domain (Homo sapiens, UniProt O15259).
T3 construct: GST (N); made in house; host or cells: Escherichia coli CodonPlus, Rosetta, BL21(DE3)
T3 sequence (O15259 152-212 limits assumed): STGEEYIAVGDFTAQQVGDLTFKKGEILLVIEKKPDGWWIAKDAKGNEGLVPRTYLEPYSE
Particulars: FP, 0.2 µM fluorescein-labeled peptide, SH3 domain 0-200 µM, Tris/HCl pH 7.5, 25 °C, quadratic fit. The procedure: as §1, §2, §3, §4, §5, §6

In experiment [3] the target is T4, SRC SH3 domain (aa 77-140) (Homo sapiens, UniProt P12931).
T4 construct: 77-140; GST (N); made in house; host or cells: Escherichia coli CodonPlus, Rosetta, BL21(DE3)
As to conditions: FP, 0.2 µM fluorescein-labeled peptide, SH3 domain 0-200 µM, Tris/HCl pH 7.5, 25 °C, quadratic fit. The protocol: as §1, §2, §3, §4, §5, §6

Experiment [4] has as its target T5, NCK1-3 SH3 domain (aa 190–252) (Homo sapiens, UniProt P16333).
T5 construct: 190–252; GST (N); made in house; host or cells: Escherichia coli CodonPlus, Rosetta, BL21(DE3)
Particulars: NCK1-3 (wt); FP, 0.2 µM fluorescein-labeled peptide, SH3 domain 0-200 µM, Tris/HCl pH 7.5, 25 °C, quadratic fit; read-out: Kd. The procedure:
as §1, §2, §3, §4, §5, §6

The target of experiment [5] is T6, NCK1-2 SH3 domain (aa 106-165) (Homo sapiens, UniProt P16333).
T6 construct: 106-165; GST (N); made in house; host or cells: Escherichia coli CodonPlus, Rosetta, BL21(DE3)
Particulars: FP, 0.2 µM fluorescein-labeled peptide, SH3 domain 0-200 µM, Tris/HCl pH 7.5, 25 °C, quadratic fit, read-out: Kd. The procedure:
as §1, §2, §3, §4, §5, §6

Experiment [6] deals with T7, RASA1 SH3 domain (aa 279–341) (Homo sapiens, UniProt P20936).
T7 construct: 279–341; GST (N); made in house; host or cells: Escherichia coli CodonPlus, Rosetta, BL21(DE3)
T7 sequence (P20936 279-341): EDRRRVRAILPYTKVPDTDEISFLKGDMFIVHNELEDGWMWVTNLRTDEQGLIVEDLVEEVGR
As to conditions: FP, 0.2 µM fluorescein-labeled peptide, SH3 domain 0-200 µM, Tris/HCl pH 7.5, 25 °C, quadratic fit. The protocol: as §1, §2, §3, §4, §5, §6

Experiment [7] has as its target T8, RIMBP3B-1 SH3 domain (aa 832-899) (Homo sapiens, UniProt A6NNM3).
T8 construct: 832-899; GST (N); made in house; host or cells: Escherichia coli CodonPlus, Rosetta, BL21(DE3)
T8 sequence (A6NNM3 832-899): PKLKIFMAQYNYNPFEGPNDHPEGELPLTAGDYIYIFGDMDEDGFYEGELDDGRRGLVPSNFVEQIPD
As to conditions: FP, 0.2 µM fluorescein-labeled peptide, SH3 domain 0-200 µM, Tris/HCl pH 7.5, 25 °C, quadratic fit. The protocol:
as §1, §2, §3, §4, §5, §6

Experiment [8] deals with T9, NCK1-1 SH3 domain (aa 2-61) (Homo sapiens, UniProt P16333).
T9 construct: 2-61; GST (N); made in house; host or cells: Escherichia coli CodonPlus, Rosetta, BL21(DE3)
As to conditions: FP, 0.2 µM fluorescein-labeled peptide, SH3 domain 0-200 µM, Tris/HCl pH 7.5, 25 °C, quadratic fit, read-out: Kd. The protocol:
as §1, §2, §3, §4, §5, §6

Experiment [9] has as its target T10, SH3GLB1 SH3 domain (aa 305-365) (Homo sapiens, UniProt Q9Y371).
T10 construct: 305-365; GST (N); made in house; host or cells: Escherichia coli CodonPlus, Rosetta, BL21(DE3)
T10 sequence (Q9Y371 305-365): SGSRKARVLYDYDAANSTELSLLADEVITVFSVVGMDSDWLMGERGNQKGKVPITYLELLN
Particulars: FP, 0.2 µM fluorescein-labeled peptide, SH3 domain 0-200 µM, Tris/HCl pH 7.5, 25 °C, quadratic fit. The procedure: as §1, §2, §3, §4, §5, §6

For experiment [10], the target named is T11, SORBS1-1 SH3 domain (aa 793-852) (Homo sapiens, UniProt Q9BX66).
T11 construct: 793-852; GST (N); made in house; host or cells: Escherichia coli CodonPlus, Rosetta, BL21(DE3)
T11 sequence (Q9BX66 793-852): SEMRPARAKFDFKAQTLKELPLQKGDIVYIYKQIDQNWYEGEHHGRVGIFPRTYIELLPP
As to conditions: FP, 0.2 µM fluorescein-labeled peptide, SH3 domain 0-200 µM, Tris/HCl pH 7.5, 25 °C, quadratic fit. The protocol: as §1, §2, §3, §4, §5, §6

Experiment [11] deals with T12, SNX9 SH3 domain (aa 1-62) (Homo sapiens, UniProt Q9Y5X1).
T12 construct: 1-62; GST (N); made in house; host or cells: Escherichia coli CodonPlus, Rosetta, BL21(DE3)
As to conditions: FP, 0.2 µM fluorescein-labeled peptide, SH3 domain 0-200 µM, Tris/HCl pH 7.5, 25 °C, quadratic fit. The procedure:
as §1, §2, §3, §4, §5, §6

Peptide text beside a SMILES is read from it. Some results are limits rather than exact numbers.

T4 sequence (P12931 77-140 limits assumed): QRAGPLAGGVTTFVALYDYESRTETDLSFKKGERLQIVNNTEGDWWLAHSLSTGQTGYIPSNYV
T12 sequence (Q9Y5X1 1-62): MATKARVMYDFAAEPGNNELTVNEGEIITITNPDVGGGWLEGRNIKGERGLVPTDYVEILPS

A word on the Kd: it is the constant that tells how readily two partners part at equilibrium. Take `CC[C@H](C)[C@H](N)C(=O)N[C@@H](CO)C(=O)N[C@@H](CC(=O)O)C(=O)N1CCC[C@H]1C(=O)N1CCC[C@H]1C(=O)N[C@@H](CCC(=O)O)C(=O)N[C@@H](CO)C(=O)N1CCC[C@H]1C(=O)N1CCC[C@H]1C(=O)N[C@@H](CC(C)C)C(=O)N[C@@H](CC(C)C)C(=O)N1CCC[C@H]1C(=O)N1CCC[C@H]1C(=O)N[C@@H](CCCNC(=N)N)C(=O)N[C@@H](CCC(=O)O)C(=O)N1CCC[C@H]1C(=O)N[C@H](C(=O)N[C@@H](CCCNC(=N)N)C(=O)N[C@H](C(=O)N1CCC[C@H]1C(=O)N[C@@H](CC(=O)O)C(=O)N[C@H](C(=O)O)C(C)C)[C@@H](C)O)C(C)C` [Peptide P5] (H-ISDPPESPPLLPPREPVRTPDV-OH): the Kd (in experiment [1]; in [2]; on NPHP1 SH3 domain; in experiment [3]; in experiment [4]; in [5]) was over 200 µM throughout. The Kd in [6], in experiment [7], in [8], in experiment [9], in [10] and in [11] was over 200 µM in each case.
Consider `C[C@H](N)C(=O)N[C@@H](Cc1ccccc1)C(=O)N[C@@H](Cc1ccccc1)C(=O)N1CCC[C@H]1C(=O)N[C@@H](CC(N)=O)C(=O)N[C@@H](CO)C(=O)N1CCC[C@H]1C(=O)N[C@@H](CO)C(=O)N1CCC[C@H]1C(=O)N[C@@H](Cc1ccccc1)C(=O)N[C@H](C(=O)N1CCC[C@H]1C(=O)N1CCC[C@H]1C(=O)N1CCC[C@H]1C(=O)N1CCC[C@H]1C(=O)N[C@@H](CCC(N)=O)C(=O)N[C@H](C(=O)N1CCC[C@H]1C(=O)N[C@@H](CO)C(=O)N1CCC[C@H]1C(=O)N[C@@H](Cc1c[nH]cn1)C(=O)NCC(=O)N[C@H](C(=O)O)[C@@H](C)O)[C@@H](C)O)[C@@H](C)O` [Peptide P7] (H-AFFPNSPSPFTPPPPQTPSPHGT-OH), for which the Kd in [1] is over 200 µM; in experiment [2], over 200 µM; on NPHP1 SH3 domain, over 200 µM; in [3], 13.3 µM; in experiment [4] it was over 200 µM; in experiment [5] it was over 200 µM. Besides, the Kd in experiment [6] is over 200 µM; in experiment [7], 15 µM; in experiment [8], over 200 µM; in [9] it was over 200 µM; in [10] it was 13.2 µM; in experiment [11] it was over 200 µM.
With `CC(C)[C@H](N)C(=O)N1CCC[C@H]1C(=O)N[C@H](C(=O)N1CCC[C@H]1C(=O)N1CCC[C@H]1C(=O)N1CCC[C@H]1C(=O)N[C@H](C(=O)N1CCC[C@H]1C(=O)N1CCC[C@H]1C(=O)N[C@@H](CCCNC(=N)N)C(=O)N[C@@H](CCCNC(=N)N)C(=O)N[C@@H](CCCNC(=N)N)C(=O)O)C(C)C)C(C)C` [RP1, reference compound], the Kd was over 200 µM in [1]; over 200 µM in experiment [2]; over 200 µM on NPHP1 SH3 domain; over 200 µM in [3]; 24.6 µM in experiment [4]; 2 µM in experiment [5]. The Kd in [6], in experiment [7], in experiment [8], in experiment [9], in experiment [10] and in [11] was over 200 µM each time.
As to `CC(C)C[C@H](NC(=O)[C@@H]1CCCN1C(=O)[C@@H]1CCCN1C(=O)[C@H](CO)NC(=O)[C@@H]1CCCN1C(=O)[C@H](CC(C)C)NC(=O)[C@H](Cc1c[nH]cn1)NC(=O)[C@@H](N)CCCNC(=N)N)C(=O)N[C@H](C(=O)N[C@@H](CCC(N)=O)C(=O)O)[C@@H](C)O` [Peptide P8] (H-RHLPSPPLTQ-OH; N-terminus and C-terminus assumed), the Kd (in experiment [1]; in experiment [2]; at NPHP1 SH3 domain; in experiment [3]; in experiment [4]; in experiment [5]) was over 200 µM throughout. Also, the Kd in experiment [6], in [7], in [8], in experiment [9], in experiment [10] and in experiment [11] was over 200 µM throughout.
For `CC[C@H](C)[C@H](NC(=O)[C@H](Cc1c[nH]cn1)NC(=O)[C@@H](N)CCC(N)=O)C(=O)N1CCC[C@H]1C(=O)N[C@@H](CCCCN)C(=O)N[C@@H](CC(C)C)C(=O)N1CCC[C@H]1C(=O)N1CCC[C@H]1C(=O)N[C@@H](CCCCN)C(=O)N[C@H](C(=O)N[C@@H](Cc1ccc(O)cc1)C(=O)O)[C@@H](C)O` [Peptide P10] (H-QHIPKLPPKTY-OH; N-terminus and C-terminus assumed), the Kd (in experiment [1]; in experiment [2]; at NPHP1 SH3 domain; in [3]; in experiment [4]; in [5]) was over 200 µM each time. The Kd in [6], in [7], in experiment [8], in [9], in experiment [10] and in experiment [11] was over 200 µM each time.
